The text below walks through data of patent US4239709A, “Process for preparing optically active oxazaphosphorins” (Otsuka Pharmaceutical Co., Ltd., priority 1978, dated 1980).

Like-named read-outs stand apart in the source and are kept apart here.

By LD50 is commonly meant the dose at which mortality reaches 50%.

Data set [1] is described as follows: Acute toxicity test (LD50). The conditions noted are these: for LD50: ICR male mice, I.P. The data set is classed as in vivo, ICR male mice. An excerpt:
LD50 (mg/kg) values (ICR male mice, I.P.) of R-(+)-cyclophosphamide, S-(-)-cyclophosphamide and racemic form of cyclophosphamide are shown below.

The test system of data set [2] is Lymphoid leukemia L-1210 solid-type tumor. Nature of the data set: L1210 Tumor test (solid-type tumor, subcutaneous, inhibition of tumor proliferation by tumor weight). The data set is classed as in vivo, BDF1 male mice. The following applies: for ED50 / ED90: Mus musculus; for ED50 / ED90 / ID50 / ID90: L1210 tumor; for ED50: read-out: ID50 (the source's name); for ED90: read-out: ID90 (the source's name). As for the experimental part:
Lymphoid leukemia L-1210 solid-type tumor was transplanted (1×10^6 cells) in subcutis on the back of BDF1 male mice having the body weight of about 22 g. The mice were killed 10-11 days after the transplantation and the inhibitory effect of tumor proliferation was evaluated by measuring the weight of tumor.
(§1) Each of 5, 10, 20, 50, 100 mg of compounds to be tested is dissolved in a phisiological NaCl solution (5 mg/kg of concentration) and administered by intraperitoneal injection (I.P.) or orally (P.O.). As to the reference the phisiological NaCl solution (5 mg/kg of concentration) was used.

The test system is the same in data set [3]. Described as above. In kind it is in vivo, BDF1 male mice. The conditions noted are these: Mus musculus, L1210, sc, I.O. (so in the source).
For data set [4], the system named is Lymphocytic leukemia P388 tumor. Nature of the data set: P388 tumor test (Table 2, headed P328 Tumor test). The following applies: for ED50 / ED90: Mus musculus, P388, ip; for ED50: read-out: ID50 (the source's name); for ED90: read-out: ID90 (the source's name). The data set is classed as in vivo, BDF1 male mice. As for the experimental part: Lymphocytic leukemia P388 liquid-type tumor was transplanted (1×10^6 cells) in abdominal cavity of BDF1 male mice having the body weight of about 20 g. The effect was evaluated by a method of ILS (Increase in life span).
Similarly lymphocytic leukemia P388 solid-type tumor was transplanted (1×10^6 cells) in subcutis on the back of BDF1 male mice having the body weight of about 22 g. The mice were killed 15 to 16 days after the transplantation and the inhibitory effect of tumor proliferation was evaluated by measuring the weight of tumor.
as §1

In another data set the test system is PC6-Tumor. The conditions noted are these: compared with R-(+)-cyclophosphamide and racemic form; Cox et al. 1976; cited from earlier work.
The conditions of data set [5]: compared with R-(+)-cyclophosphamide; Cox et al. 1976; cited from earlier work.
The mark [6] stands for this setting: mouse, in vivo, ip, read-out: LD50.
Setting [7] is: P328 Tumor test (so in the source), I.P.

For `O=P1(N(CCCl)CCCl)NCCCO1` (racemic) [Racemic form of cyclophosphamide, cyclophosphamide], in data set [1] (setting [6]), the LD50 is 440 mg/kg. The ED50 is 28 mg/kg in data set [2] (L1210, po, P.O.); 33 mg/kg in data set [3] (read-out: ID50 (the source's name)); 12.9 mg/kg in data set [4] (setting [7]). The ED90 in data set [2] (L1210, po, P.O.) turned out to be 90 mg/kg; in data set [3] (read-out: ID90 (the source's name)), 107 mg/kg; in data set [4] (setting [7]), 39.7 mg/kg.
Regarding `O=P1(N(CCCl)CCCl)NCCCO1` (single isomer, unassigned) [R-(+)-cyclophosphamide], in data set [1] (in mice, compared with S-(-)-cyclophosphamide and racemic form), the acute toxicity result was “lower acute toxicity (in mice) than those shown by S-(-)-cyclophosphamide and racemic form of cyclophosphamide”. In addition, the LD50 in data set [1] (setting [6]) was 550 mg/kg. The ED50 in data set [2] (L1210, ip, I.P.) turned out to be 32 mg/kg; in data set [2] (L1210, po, P.O.), 24 mg/kg; in data set [4] (setting [7]), 24.3 mg/kg. Moreover, the ED90 stood at 104 mg/kg in data set [2] (L1210, ip, I.P.); 76 mg/kg in data set [2] (L1210, po, P.O.); 50.8 mg/kg in data set [4] (setting [7]). The “anti-tumor effect against L 1210-Tumor” value in data set [2] (compared with S-(-)-cyclophosphamide and racemic form) is “better anti-tumor effect than those of shown by S-(-)-cyclophosphamide and racemic form of cyclophosphamide”.
Turning to `O=P1(N(CCCl)CCCl)NCCCO1` (single isomer, unassigned) [S-(-)-cyclophosphamide], the LD50 in data set [1] turned out to be 330 mg/kg. Also, the ID50 is on record as 44 mg/kg in data set [2] (I.P.), 29 mg/kg in data set [2] (P.O.) and 14.6 mg/kg in data set [4] (setting [7]). Besides, the ID90 in data set [2] (I.P.) amounted to 143 mg/kg; in data set [2] (P.O.), 95 mg/kg; in data set [4] (setting [7]), 26.3 mg/kg. In the data set on PC6-Tumor, the “anti-tumor effect against PC6-Tumor” value was “better than those of R-(+)-cyclophosphamide and racemic form of cyclophosphamide”. Also, the pharmacological activities entry in data set [5] is “excellent pharmacological activities as compared with R-(+)-cyclophosphamide”. Besides, in data set [4] (compared with R-(+)-cyclophosphamide and racemic form), the “anti-tumor effect against P388-Tumor” value was “better than those of R-(+)-cyclophosphamide and racemic form of cyclophosphamide”.
